Assay results from patent EP1739169B1, “Clinical diagnostic reagent comprising glucose 6-phosphate dehydrogenase (G6PDH), method for stabilizing G6PDH, and use of a stabilizer for G6PDH” (SYSMEX CORPORATION, priority 2005, dated 2007).

Legend:
[1] = Residual amount of SH group of NAC in the reagent after heat loading at 37°C (quantification with DTNB, absorbance at 412 nm); format: physicochemical; conditions: heat loading at 37°C for 5 days; for SH group residual amount: relative to reagent without heat loading
Description: (§1) Aminoguanidine was added to the above composition to prepare three kinds of reagents different in the concentration of aminoguanidine. The concentrations of aminoguanidine in these reagents were 10 mM, 20 mM and 40 mM respectively. After these reagents were subjected to heat loading at 37°C for 5 days, the residual activity of G6PDH was measured and the residual amount of SH group in NAC was quantified.
The quantification of SH group was carried out by using DTNB (5,5'-dithiobis(2-nitrobenzoic acid)). When DTNB is added to the reagent where NAC is present, disulfide linkages corresponding to the amount of SH groups in the NAC are cleaved to generate 5-mercapto-2-nitrobenzoic acid. When 5-mercapto-2-nitrobenzoic acid is generated, the absorbance at a wavelength of 412 nm is increased, and thus this increase can be measured to determine the amount of SH groups in the reagent.
(§2) In Table 1, the residual activity of G6PDH and the residual amount of SH group of NAC are expressed in percentage. These values are those relative to the activity of G6PDH and the amount of SH group of NAC in each reagent which without subjection to heat loading, was measured by the method described in Example 1. Table 1 […]

G6PDH = test: Residual activity of G6PDH in CK activity measurement reagent after heat loading at 37°C (NADPH formation, absorbance at 340 nm); format: biochemical; conditions: heat loading at 37°C for 5 days; for G6PDH residual activity: relative to reagent without heat loading
Description: as §1
The activity of G6PDH was measured in the following manner. First, a solution wherein 20 mM magnesium chloride, 0.6 mM NADP and 0.5 mM G6P were dissolved in a solution containing 0.1 M glycylglycine (pH 8.5) was prepared. When 300 µl of this solution was mixed with 1 µl of the first reagent, NADPH is formed by the activity of G6DPH. When NADPH is formed, the absorbance at a wavelength of 340 nm is increased, and thus this increase is measured to determine the activity of G6PDH.
as §2

CC(=O)NN [acetohydrazine, reference compound]
amount of SH group of NAC after heat loading (in words) [1]: NAC was deteriorated to reduce the amount of SH group | SH group residual amount ([1]; stabilizer 20 mM in reagent): 78.4% | SH group residual amount ([1]; stabilizer 40 mM in reagent): 77.7% | activity of G6PDH after heat loading (in words) (G6PDH): the activity of G6PDH was lost | G6PDH residual activity (G6PDH; stabilizer 20 mM in reagent): 84.3% | G6PDH residual activity (G6PDH; stabilizer 40 mM in reagent): 87.8%

N=C(N)NN [aminoguanidine]
amount of SH group of NAC after heat loading (in words) [1]: without reducing the amount of SH group | SH group residual amount ([1]; stabilizer 10 mM in reagent): 92.2% | SH group residual amount ([1]; stabilizer 20 mM in reagent): 95.4% | SH group residual amount ([1]; stabilizer 40 mM in reagent): 94.1% | activity of G6PDH after heat loading (in words) (G6PDH): the activity of G6PDH could be maintained | G6PDH residual activity (G6PDH; stabilizer 10 mM in reagent): 88.2% | G6PDH residual activity (G6PDH; stabilizer 20 mM in reagent): 92.6% | G6PDH residual activity (G6PDH; stabilizer 40 mM in reagent): 94.8%
